According to patent publication US20220227761A1, “OXOACRIDINYL ACETIC ACID DERIVATIVES AND METHODS OF USE” (STINGTHERA, INC., priority 2019, published 2022):

Tests used:
[1] = target: T1, mouse STING protein (139-328) (Mus musculus, UniProt Q3TBT3); assay: Radiometric filtration binding competition assay (FBA), mSTING
T1 sequence (Q3TBT3 139-328): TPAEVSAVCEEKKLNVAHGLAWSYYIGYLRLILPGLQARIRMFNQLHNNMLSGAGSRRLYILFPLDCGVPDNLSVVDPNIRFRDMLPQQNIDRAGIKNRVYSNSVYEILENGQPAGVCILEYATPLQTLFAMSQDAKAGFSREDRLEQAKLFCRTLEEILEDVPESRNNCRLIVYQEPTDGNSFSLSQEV

hSTING-R232 (aa140-379) = hSTING-R232 (aa140-379) (Homo sapiens, UniProt Q86WV6, H232R); assay: STING differential scanning fluorimetry (DSF) assay, hSTING WT; settings: shift in melting temperature apo vs ligand-bound
Description: A STING DSF assay was performed to determine protein thermostability shift in response to small molecule ligand binding. A STING thermnostability shift assay based on differential scanning fluorimetry was used to measure (1) the net shift in melting temperature (ΔTm) between the apo and ligand-bound states of the STING protein and (2) the concentration of the thermal denaturation transition (EC50) as a surrogate measure of binding affinity (Kd). […] Protein in assay buffer was transferred to a 384 well plate and incubated with the hydrophobic fluorescent dye SYBR Orange. A temperature ramp was applied to the plate and the resulting dye fluorescence was plotted as a function of temperature. The first derivative of this function (dF/dT) was then used to extrapolate the melting temperature of the protein at various concentrations of compound and determine the thermal denaturation profile of a protein/compound complex.
5 μM purified Target STING Protein • 3. 8 μM Sypro Orange Dye • 4. Buffer: 100 mM NaCl, 30 mM HEPES, pH 7.5 • 5. Thermal Ramp: 0.5° C./min • 6. <1% DMSO • 7. 11 point, 2 fold dilution, duplicate, 300 μM high concentrations • 8.

[2] = target: human STING protein (140-379), WT (Homo sapiens, UniProt Q86WV6, H232R); assay: Radiometric filtration binding competition assay (FBA), hSTING-WT; settings: WT-hSWAT IC50 (μM), WT_FBA_HIS-SUMO-hSWAT; wild-type human STING; competition with [H3] 2′3′cGAMP
[3] = test system: STING protein; IRF/IFN signaling in THP-1 R232 cells; assay: Cell based reporter assay, THP-1 R232 IRF-luc; settings: Homo sapiens, THP1-dual-KI R232 cells, IRF luciferase reporter; for Emax: maximum measured activity, read-out: THP 1-dual-KI R232_IRF(Luciferase)_Activity Maximum measured (%); for IC50: read-out: THP 1-dual-KI R232_IRF(Luciferase) IC50
Source text: Cell reporter assays were developed to measure the ability of compounds of the application to activate the STING protein and activate both IRF/IFN and the NFkB signaling pathways in the myeloid derived cell line THP-1, which is commercially available from several suppliers. Briefly, THP-1 monocytes were transfected and selected for stable integration of 2 reporter constructs. Clones incorporating stably integrated vectors were further selected by antibiotic resistance to blastocidin and zeocin. The reporter constructs included: (1) firefly luciferase reporter gene under the control of an ISG54 promoter fused to five interferon (IFN)-stimulated response elements to measure IRF transcription factor binding activity and (2) secreted embryonic alkaline phosphatase reporter gene under transcription control of an IFN-beta minimal promoter fused to 5 copies of the NFkB consensus transcriptional response element and 3 copies of the c-Rel binding site.
The resulting THP-1 cell line was further modified to incorporate 3 amino acid point mutations (H71R A230G Q293R). This modification of the native TMEM173 gene in THP-1 cells (HAQ) was designed to produce a cell reporter that expressed the most common allelic variant in the human population (THP-1 R232, available from InvivoGen). Alternatively, the TMEM173 gene was knocked out to provide a congenic control to counter-screen for compound activation that was independent of the STING protein (THP-1 STING KO).
Once cell lines were established, reporter assay protocols were developed and optimized to screen small molecule compounds for agonist activity. Assay optimization for efficacy and Z′ value included titration of the following parameters:
• 1. Cell pre-activation with PMA • 2. Cell seeding density • 3. DMSO tolerance • 4. Media selection • 5. FBS concentration • 6. Incubation time • 7. Co-Assessment of cell viability by CTG assay • 8. Appropriate HPE and ZPE controls • 9. Dose Response Titration
• 1. No pre-activation with PMA • 2. 5×10^4 cells/well in 96 well plate format • 3. <0.5% DMSO • 4. RPMI 1640+2.5 mg/ml glucose • 5. 10% FBS • 6. 14-18 hr incubation • 7. Cell Titer Glo reagent (Promega) following supernatant removal • 8. […] 8 point, 2 fold, duplicate starting at 150 μM

Chain of human STING protein (140-379), WT (Q86WV6 140-379 H232R): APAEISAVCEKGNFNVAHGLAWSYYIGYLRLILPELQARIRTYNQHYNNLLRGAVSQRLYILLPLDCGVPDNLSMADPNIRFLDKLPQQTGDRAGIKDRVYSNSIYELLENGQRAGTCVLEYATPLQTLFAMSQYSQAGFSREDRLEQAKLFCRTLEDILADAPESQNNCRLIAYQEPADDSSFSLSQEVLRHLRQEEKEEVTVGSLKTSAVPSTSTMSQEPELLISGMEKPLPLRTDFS
Chain of hSTING-R232 (aa140-379) (Q86WV6 140-379 H232R): as above

SMILES	IC50 [1] [µM]	WT_DSF_hSWAT Tm Shift (° C.) (hSTING-R232 (aa140-379))	IC50 [2] [µM]	IC50 [3] [µM]	Emax [3] [%]
Cc1ccc2c(=O)c3ccc(Cl)c(N4CCCC4)c3n(CC(=O)O)c2c1 [Compound 64]	20 to 100	D (“D” >7° C.)	20 to 100	< 50	> 50
CN(C)c1c(Cl)ccc2c(=O)c3ccc(C(C)(C)C)cc3n(CC(=O)NS(C)(=O)=O)c12 [Compound 57]	< 20	D (“D” >7° C.)	< 20	< 50	> 50
COc1c(Cl)ccc2c(=O)c3ccc(C4CCN(C)CC4)cc3n(CC(=O)O)c12 [Compound 53]		C (“C” = 2-7° C.)	100 to 300	> 150	5 to 25
CN(C)c1c(Cl)ccc2c(=O)c3ccc(Br)cc3n(CC(=O)O)c12 [Compound 20]		D (“D” >7° C.)	< 20	< 50	> 50
Cc1ccccc1-c1c(Cl)ccc2c(=O)c3ccccc3n(CC(=O)O)c12 [Compound 59]	> 300	B (“B” = 0-2° C.)	20 to 100	50 to 100	5 to 25
CN(C)c1c(Cl)ccc2c(=O)c3ccc(C4=CCN(C(=O)OC(C)(C)C)C4)cc3n(CC(=O)O)c12 [Compound 25]		D (“D” >7° C.)	< 20	< 50	> 50

More lines, main results first:

IC50 [1] [µM]	WT_DSF_hSWAT Tm Shift (° C.) (hSTING-R232 (aa140-379))	IC50 [2] [µM]	IC50 [3] [µM]	SMILES	Emax [3] [%]
20 to 100	D (“D” >7° C.)	20 to 100	> 150	O=C(O)Cn1c2ccccc2c(=O)c2ccc(Cl)c(-c3cccs3)c21 [Compound 62]	25 to 50
	D (“D” >7° C.)	< 20	< 50	CN(C)c1c(Cl)ccc2c(=O)c3ccc(C4CC4)cc3n(CC(=O)O)c12 [Compound 36]	> 50
	D (“D” >7° C.)	< 20	< 50	CN(C)c1c(Cl)ccc2c(=O)c3ccc(-c4ccccn4)cc3n(CC(=O)O)c12 [Compound 10]	> 50
	D (“D” >7° C.)	< 20	< 50	Cc1cccn1-c1ccc2c(=O)c3ccc(Cl)c(N(C)C)c3n(CC(=O)O)c2c1 [Compound 4]	> 50
